Tested on: human platelets in platelet-rich plasma
Assay: Platelet aggregation inhibition assay (ADP-induced, platelet-rich plasma)
Type: cell-based
Settings: fresh human platelet-rich plasma, aggregation induced by ADP 10 to 15 micromolar; read-out: IC50 (concentration of reagent that inhibits by 50% the aggregation of human platelets)
Method: Platelet aggregation studies were performed essentially as described by Zucker (1989, Methods in Enzymol. 169: 117-133). Briefly, platelet aggregation was assayed with or without putative platelet aggregation inhibitory compounds using fresh human platelet-rich plasma comprising 300,000 platelets per microlitre. Platelet aggregation was induced by the addition of a solution of adenosine diphosphate to a final concentration of 10 to 15 micromolar, and the extent of platelet aggregation monitored using a Bio/Data aggregometer (Bio/Data Corp., Horsham. Pa.). The concentrations of platelet aggregation inhibitory compounds used were varied from 0.1 to 500 μg/mL. The concentration of inhibitor that reduced the extent of platelet aggregation by 50% (defined as the IC50) was determined from plots of inhibitor concentration versus extent of platelet aggregation. An inhibition curve for peptide RGDS was determined for each batch of platelets tested as a positive control.
*concentration of reagent that inhibits by 50% the aggregation of human
platelets in plateletrich plasma induced to aggregate by the addition of
adenosine diphosphate (ADP).

Question: Which IC50 does the source give for GRDGVRGDFCAcm GCAcm amide [Peptide P98] here?
Answer: 15 µM
